Results reported in patent US7271187B2, “Compositions and methods for promoting tissue regeneration” (priority 2000, dated 2007).
“Also recorded” adds a separate entry of the source.

Assays:
[1] = test system: bone marrow cells; assay: Nestin expression in bone marrow cells after systemic administration; assay type: in vivo, rat; details: bone marrow harvested 3-7 days after systemic administration; vs non-treated rats
Description: (§1) In some embodiments of the invention, cells, preferably bone marrow cells, can be transferred from a first animal treated according to methods of the invention to a site of chronic spinal cord injury in the first animal or in a second animal.

[2] = test system: Fischer F344 female rats, spinal cord contusion injury; assay: Spinal cord contusion injury, injection of bone marrow cells from treated donors into the cavity; assay type: in vivo, rat; details: recipients of bone marrow cells from donors given 100 mg/kg orally
Description: as §1
Fischer F344 female rats (Taconic, Germantown N.Y.) weighing 175-200 g were subjected to 25 mm weight drop contusion injury as previously described (Gruner J A, J. Neurotrauma, 1992 Summer; 9(2):123-8) with slight modifications. Briefly, under isoflurane anethesia, a laminectomy exposing the T8-9 spinal cord segment was performed and a rod weighing 10 g was dropped on the exposed cord from 25 mm height. The rod diameter at its end (where cord-rod interaction takes place) is 2.8 mm. A total of 12 rats were injured. Four animals were used as donor animals, eight as recipients. Two donor animals were administered N-[4-[(4-fluorophenyl)sulfonyl]phenyl]acetamide at a dose of 100 mg/kg orally, and two other animals were treated with vehicle (cyclodextrin, 45% in distilled sterile water). […]
Doseage levels of with N-[4-[(4-fluorophenyl)sulfonyl]phenyl]acetamide was 100 mg/kg at 20 mg/ml. No difference in cavity size was detected comparing saline treated animals and animals treated with bone marrow cells from vehicle treated donors. […]

CC(=O)Nc1ccc(S(=O)(=O)c2ccc(F)cc2)cc1 [N-[4-[(4-fluorophenyl)sulfonyl]phenyl]acetamide]
expression of Nestin in bone marrow cells [1]: increased expression of Nestin | cavity size at the injury site ([2]; four weeks after cell injection, vs saline treated animals): decrease in cavity size at the injury site (approximately half the size) | Nestin immunoreactive cells at the edge of the injury cavity ([2]; vs saline or vehicle treated donors, 100 mg/kg): Nestin immunoreactive cells are observed at the edge of the injury cavity; also recorded: significant increase in cells immunoreactive to nestin
